The results in this text go back to the RepoRT retention time repository.

A short description of this data set: HILIC, Waters ACQUITY UPLC BEH Amide, 100 × 2.1 mm, 1.7 µm; A: water + 0.125% formic acid + 10 mM ammonium formate; B: 5% water + 95% acetonitrile + 0.125% formic acid + 10 mM ammonium formate; gradient (min/%B) 0/100 2/100 7.7/70 9.5/40 10.25/30 12.75/100 17/100. The note with it: stereoisomer not certain.

`CC(NC(CCc1ccccc1)C(=O)O)C(=O)N1CCCC1C(=O)O` (configuration not stated) [Enalaprilat]: the LC retention time came to 7.07 min.
As to `CCN1CCN(c2cc3c(cc2F)c(=O)c(C(=O)O)cn3C2CC2)CC1` [Enrofloxacin], the LC retention time came out at 3.31 min.
The figure for `Oc1cc(O)c2c(c1)OC(c1cc(O)c(O)c(O)c1)C(O)C2` (configuration not stated) [Epigallocatechin] is 10.2 min.
For `Oc1ccc(C2COc3cc(O)ccc3C2)cc1` (configuration not stated) [Equol], the LC retention time stood at 1.19 min.
`CC(C)C(C)C=CC(C)C1CCC2C3=CC=C4CC(O)CCC4(C)C3CCC21C` (configuration not stated) [Ergosterol]: the LC retention time stood at 1.43 min.
As to `C[N+](C)(C)C(Cc1c[nH]c(=S)[nH]1)C(=O)[O-]` (configuration not stated) [Ergothioneine], the LC retention time amounted to 7.74 min.
The figure for `CCCCCCCCC=CCCCCCCCCCCCC(N)=O` [Erucamide] is 1.06 min; for `COC(=O)CCc1ccc(OCC(O)CNC(C)C)cc1` (configuration not stated) [Esmolol] it is 3.13 min; for `COc1ccc2nc(S(=O)Cc3ncc(C)c(OC)c3C)[nH]c2c1` (configuration not stated) [Esomeprazole] it is 1.35 min.
As for `NCCO` [Ethanolamine], the LC retention time came to 7.15 min.
`CCCC(=O)OCC` [Ethylbutanoate]: the LC retention time worked out at 4.88 min.
With `C#CC1(O)CCC2C3CCc4cc(O)ccc4C3CCC21C` (configuration not stated) [Ethynylestradiol], the LC retention time was found to be 0.99 min.
As to `CCOC(=O)c1cncn1C(C)c1ccccc1` (configuration not stated) [Etomidate], the LC retention time worked out at 0.98 min.
With `COc1cc(C2c3cc4c(cc3C(OC3OC5COC(C)OC5C(O)C3O)C3COC(=O)C23)OCO4)cc(OC)c1O` (configuration not stated) [Etoposide], the LC retention time worked out at 1.3 min.
Turning to `C=C1CC2C(CCC3(C)C(=O)CCC23)C2(C)C=CC(=O)C=C12` (configuration not stated) [Exemestane], the LC retention time turned out to be 0.98 min.
On to `O=C1C(CCC(O)c2ccc(F)cc2)C(c2ccc(O)cc2)N1c1ccc(F)cc1` (configuration not stated) [Ezetimibe], for which the LC retention time worked out at 1.03 min.
For `CC(=O)OCC(CCn1cnc2cnc(N)nc21)COC(C)=O` [Famciclovir], the LC retention time stood at 1.38 min.
Turning to `NC(N)=Nc1nc(CSCCC(N)=NS(N)(=O)=O)cs1` [Famotidine], the LC retention time was determined as 5.59 min.
Next, `NC(=O)OCC(COC(N)=O)c1ccccc1` [Felbamate]: 1.2 min; `CCNC(C)Cc1cccc(C(F)(F)F)c1` (configuration not stated) [Fenfluramine]: 2.33 min.
Take `Oc1ccc(C2CNCCc3c2cc(O)c(O)c3Cl)cc1` (configuration not stated) [Fenoldopam]: the LC retention time worked out at 5.68 min.
In the case of `CCOC(=O)C(C)Oc1ccc(Oc2nc3ccc(Cl)cc3o2)cc1` (configuration not stated) [Fenoxaprop-P-ethyl], the LC retention time came out at 1.01 min.
The figure for `COc1cc(/C=C/C(=O)O)ccc1O` [Ferulic acid] is 1.36 min; for `CC(C)(C)NC(=O)C1CCC2C3CCC4NC(=O)C=CC4(C)C3CCC12C` (configuration not stated) [Finasteride] it is 1.17 min.
For `COC(=O)Nc1nc2ccc(C(=O)c3ccc(F)cc3)cc2[nH]1` [Flubendazole], the LC retention time was 1.16 min.
As for `CCOC(=O)c1ncn2c1CN(C)C(=O)c1cc(F)ccc1-2` [Flumazenil], the LC retention time worked out at 1.08 min.
On to `CN1C(=O)CN=C(c2ccccc2F)c2cc([N+](=O)[O-])ccc21` [Flunitrazepam], for which the LC retention time was determined as 1.05 min.
`c1ccc2c(c1)Cc1ccccc1-2` [Fluorene]: the LC retention time was determined as 6.66 min.
As for `CN1CCN(C2=Nc3cc(F)ccc3Cc3ccccc32)CC1` [Fluperlapine], the LC retention time is 2.3 min.
As to `OCCN1CCN(CCCN2c3ccccc3Sc3ccc(C(F)(F)F)cc32)CC1` [Fluphenazine], the LC retention time was found to be 2.74 min.
The figure for `CCN(CC)CCN1C(=O)CN=C(c2ccccc2F)c2cc(Cl)ccc21` [Flurazepam] is 2.41 min; for `COCCCCC(=NOCCN)c1ccc(C(F)(F)F)cc1` [Fluvoxamine] it is 2.93 min.
